From patent US8088777B2, “Urea derivative” (Shionogi & Co., Ltd., priority 2006, dated 2012)

Biological target: T1, human NPY Y5 receptor (Homo sapiens, UniProt Q15761)
T1 construct: expressed in transfected cells; membranes used
T1 sequence (Q15761 1-445): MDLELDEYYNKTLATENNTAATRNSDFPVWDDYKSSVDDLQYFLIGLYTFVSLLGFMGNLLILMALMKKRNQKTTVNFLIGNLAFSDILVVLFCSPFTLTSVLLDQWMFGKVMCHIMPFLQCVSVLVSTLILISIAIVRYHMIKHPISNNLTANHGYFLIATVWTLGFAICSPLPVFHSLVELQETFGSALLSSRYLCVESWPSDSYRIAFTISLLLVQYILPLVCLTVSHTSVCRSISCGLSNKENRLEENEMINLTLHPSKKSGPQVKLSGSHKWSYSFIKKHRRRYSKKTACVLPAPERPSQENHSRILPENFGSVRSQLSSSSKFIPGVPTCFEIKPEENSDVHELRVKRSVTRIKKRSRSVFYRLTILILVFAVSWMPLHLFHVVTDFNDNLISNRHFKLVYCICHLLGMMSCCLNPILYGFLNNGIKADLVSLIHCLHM
Test: Affinity for NPY Y5 receptor: inhibition of [125I] peptide YY binding to membranes of CHO cells expressing NPY Y5 receptor
Details: [125I] peptide YY 60 pM, 25° C., 2 hours, read-out: 50% inhibitory concentration of the test compound against the specific peptide YY binding (IC50 value)
From the text: cDNA sequence encoding a human NPY Y5 receptor (WO96/16542) was cloned in a vector pME18S (Takebe et al. Mol. Cell. Biol. 8, 8957). The obtained expression vector was transfected into CHO cells as a host by using Lipofect AMINE reagent (Trademark, Gibco BRL Co., Ltd.) according to the instruction […] manual. The cells that stably express NPY Y5 receptor were obtained.
The membranes prepared from the CHO cells expressing NPY Y5 receptor, the compound of the present invention and 30,000 cpm [^125I] peptide YY (60 pM of final concentration: Amersham) were incubated in the assay buffer (20 mM HEPES-Hanks buffer containing 0.1% bovine serum albumin, pH 7.4) at 25° C. for 2 hours, and then the membrane was collected by filtering the mixture through a glassfilter (GF/C) presoaked with 1% polyethyleneimine. After washing with 50 mM Tris-HCl buffer (pH 7.4), radioactivity retained on the filters was quantified with a gamma counter. Nonspecific binding was defined as the amount of radioactivity bound to the membranes after incubation in the presence of 200 nM of peptide YY. The 50% inhibitory concentration of the test compound against the specific peptide YY binding (IC50 value) was calculated (Inui, A. et al. Endocrinology 131, 2090-2096 (1992)).

IC50	Structure (SMILES)
1.85 nM	CCS(=O)(=O)N(C)C1CCC(N(C)C(=O)Nc2ccc3c(c2)oc(=O)n3C(C)C)CC1 (stereo not drawn) [Example II-2]
0.55 nM	CC(C)n1c(=O)oc2cc(NC(=O)N[C@H]3CC[C@H](NS(=O)(=O)C(C)(C)C)CC3)ccc21 [Example II-12]
0.32 nM	CC(C)n1c(=O)oc2cc(NC(=O)N[C@H]3CC[C@H](NS(=O)(=O)C(C)C)CC3)ccc21 [Example II-14]
